Results on one compound are retold here after ChEMBL document CHEMBL2321873, “1-(4-Phenylpiperazin-1-yl)-2-(1H-pyrazol-1-yl)ethanones as novel CCR1 antagonists” (Bioorg Med Chem Lett, 2013).

Activity calls are given as the source filed them. The calls are words filed in the database; no cut-off is given here.

Usually bioavailability stands for the share of a dose that reaches the circulation, judged against a reference dose that is usually intravenous.

The target of series [1] is Atypical chemokine receptor 3 (Homo sapiens) (UniProt P25106). Nature of the series: Antagonist activity at CXCR7 (unknown origin) assessed as inhibition of chemotaxis at 10 uM.
Atypical chemokine receptor 3 (Homo sapiens), sequence (P25106 whole entry): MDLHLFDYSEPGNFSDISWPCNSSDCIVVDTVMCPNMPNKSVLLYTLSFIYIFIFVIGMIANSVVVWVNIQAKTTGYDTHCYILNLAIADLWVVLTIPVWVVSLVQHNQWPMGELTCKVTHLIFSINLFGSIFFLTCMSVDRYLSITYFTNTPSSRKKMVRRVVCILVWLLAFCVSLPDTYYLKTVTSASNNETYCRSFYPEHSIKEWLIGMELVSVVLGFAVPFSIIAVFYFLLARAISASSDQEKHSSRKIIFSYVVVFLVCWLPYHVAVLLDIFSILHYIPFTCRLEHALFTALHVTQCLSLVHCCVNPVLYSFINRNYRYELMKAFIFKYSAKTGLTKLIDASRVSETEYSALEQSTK
The target of series [2] is T1, C-C chemokine receptor type 6 (Homo sapiens) (UniProt P51684).
T1 sequence (whole entry): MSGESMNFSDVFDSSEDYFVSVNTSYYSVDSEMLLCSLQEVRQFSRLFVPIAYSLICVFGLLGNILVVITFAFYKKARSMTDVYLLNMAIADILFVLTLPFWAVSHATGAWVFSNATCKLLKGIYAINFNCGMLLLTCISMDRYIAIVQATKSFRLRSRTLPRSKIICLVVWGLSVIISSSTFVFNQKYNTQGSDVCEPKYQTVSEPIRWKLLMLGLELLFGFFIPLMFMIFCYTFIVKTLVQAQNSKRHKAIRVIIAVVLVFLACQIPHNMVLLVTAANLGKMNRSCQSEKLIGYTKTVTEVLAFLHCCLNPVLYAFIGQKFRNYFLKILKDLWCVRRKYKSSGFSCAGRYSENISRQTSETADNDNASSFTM
As to the kind of experiment: Antagonist activity at CCR6 (unknown origin) assessed as inhibition of chemotaxis at 10 uM.

Series [3] deals with C-X-C chemokine receptor type 6 (Homo sapiens) (UniProt O00574). Nature of the series: Antagonist activity at CXCR6 (unknown origin) assessed as inhibition of calcium flux at 10 uM. The class given is functional.
C-X-C chemokine receptor type 6 (Homo sapiens), sequence (O00574 whole entry, looked up): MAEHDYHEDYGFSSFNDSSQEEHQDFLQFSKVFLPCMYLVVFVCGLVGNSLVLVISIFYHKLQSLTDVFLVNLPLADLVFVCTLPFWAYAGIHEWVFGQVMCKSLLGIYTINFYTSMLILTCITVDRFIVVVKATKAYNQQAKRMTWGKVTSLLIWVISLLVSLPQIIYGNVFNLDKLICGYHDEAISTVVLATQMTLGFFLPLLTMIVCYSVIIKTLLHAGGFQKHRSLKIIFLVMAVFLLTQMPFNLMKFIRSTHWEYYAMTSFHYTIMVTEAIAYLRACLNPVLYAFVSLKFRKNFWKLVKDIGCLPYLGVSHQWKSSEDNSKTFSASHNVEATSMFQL
For series [4], the target named is T1, C-C chemokine receptor type 6 (Homo sapiens). As to the kind of experiment: Antagonist activity at CCR6 (unknown origin) assessed as inhibition of calcium flux at 10 uM. In kind it is functional. On the technique in general: Calcium flux is commonly read through the fluorescence of an indicator in the cells.
Series [5] has as its target T2, CX3C chemokine receptor 1 (Homo sapiens) (UniProt P49238).
T2 sequence (whole entry): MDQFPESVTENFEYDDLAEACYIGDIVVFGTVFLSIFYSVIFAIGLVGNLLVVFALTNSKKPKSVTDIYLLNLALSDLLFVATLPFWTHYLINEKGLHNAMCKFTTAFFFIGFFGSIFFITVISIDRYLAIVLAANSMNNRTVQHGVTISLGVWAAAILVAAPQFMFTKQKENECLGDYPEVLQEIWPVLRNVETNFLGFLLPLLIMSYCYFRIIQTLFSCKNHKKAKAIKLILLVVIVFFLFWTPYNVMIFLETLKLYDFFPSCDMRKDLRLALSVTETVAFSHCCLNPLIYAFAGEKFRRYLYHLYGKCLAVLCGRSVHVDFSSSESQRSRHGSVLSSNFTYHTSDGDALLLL
As to the kind of experiment: Binding affinity to CX3CR1 (unknown origin) at 10 uM by radioligand displacement assay. (In general: Loss of bound radioactivity is the signal in a displacement assay; it reports binding, not function.)

Series [6] deals with T3, C-C chemokine receptor-like 2 (Homo sapiens) (UniProt O00421).
T3 sequence (whole entry): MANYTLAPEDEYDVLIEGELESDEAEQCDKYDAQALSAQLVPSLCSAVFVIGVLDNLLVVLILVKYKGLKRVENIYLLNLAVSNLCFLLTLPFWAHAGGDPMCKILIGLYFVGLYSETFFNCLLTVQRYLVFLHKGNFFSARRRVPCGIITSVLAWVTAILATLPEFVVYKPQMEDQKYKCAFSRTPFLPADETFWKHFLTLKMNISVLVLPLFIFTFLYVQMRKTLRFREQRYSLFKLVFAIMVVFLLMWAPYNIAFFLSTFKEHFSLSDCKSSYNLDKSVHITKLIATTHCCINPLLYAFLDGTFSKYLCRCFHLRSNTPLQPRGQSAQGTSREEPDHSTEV
As to the kind of experiment: Binding affinity to CCR11 (unknown origin) at 10 uM by radioligand displacement assay.

Series [7] concerns the target T1, C-C chemokine receptor type 6 (Homo sapiens). Nature of the series: Binding affinity to CCR6 (unknown origin) at 10 uM by radioligand displacement assay.
The target in series [8] is C-C chemokine receptor type 5 (Homo sapiens) (UniProt P51681). Nature of the series: Binding affinity to CCR5 (unknown origin) at 10 uM by radioligand displacement assay.
C-C chemokine receptor type 5 (Homo sapiens), sequence (P51681 whole entry, looked up): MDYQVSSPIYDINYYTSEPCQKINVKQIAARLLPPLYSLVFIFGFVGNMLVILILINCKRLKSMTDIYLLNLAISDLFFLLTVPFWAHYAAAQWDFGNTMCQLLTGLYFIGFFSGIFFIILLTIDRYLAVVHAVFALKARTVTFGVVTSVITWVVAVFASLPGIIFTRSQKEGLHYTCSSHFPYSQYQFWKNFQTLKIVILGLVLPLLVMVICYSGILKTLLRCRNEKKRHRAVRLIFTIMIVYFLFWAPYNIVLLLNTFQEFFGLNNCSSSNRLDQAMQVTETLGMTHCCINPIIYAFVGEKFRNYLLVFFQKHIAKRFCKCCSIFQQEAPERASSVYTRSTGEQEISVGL
A short description of series [9]: Oral bioavailability in Beagle dog at 5 mg/kg. The class given is ADME, organism-based, Canis lupus familiaris. As to conditions: in vivo.

With `COc1cc(N2CCN(C(=O)Cn3nc(C(F)(F)F)c(Cl)c3C)CC2)ccc1Cl`, the inhibition entry in [1], in [2], in series [3] and in series [4] was “inactive” each time. In addition, the result in series [5], in series [6], in [7] and in series [8] was inactive. Moreover, the bioavailability in series [9] was determined as 20%.
